Laboratory results reported in ChEMBL document CHEMBL1123967, “New potent antagonists of leukotrienes C4 and D4. 1. Synthesis and structure-activity relationships” (J Med Chem, 1988).

How the values were obtained:
[1] = target: T1, Cysteinyl leukotriene receptor (Homo sapiens, UniProt Q9Y271+Q9NS75); assay: Inhibition of LTC4 induced smooth muscle contraction of guinea pig ileum; format: functional, tissue-based, Cavia porcellus; conditions: target entry is the homologue from another species
T1 sequence (Q9Y271 whole entry): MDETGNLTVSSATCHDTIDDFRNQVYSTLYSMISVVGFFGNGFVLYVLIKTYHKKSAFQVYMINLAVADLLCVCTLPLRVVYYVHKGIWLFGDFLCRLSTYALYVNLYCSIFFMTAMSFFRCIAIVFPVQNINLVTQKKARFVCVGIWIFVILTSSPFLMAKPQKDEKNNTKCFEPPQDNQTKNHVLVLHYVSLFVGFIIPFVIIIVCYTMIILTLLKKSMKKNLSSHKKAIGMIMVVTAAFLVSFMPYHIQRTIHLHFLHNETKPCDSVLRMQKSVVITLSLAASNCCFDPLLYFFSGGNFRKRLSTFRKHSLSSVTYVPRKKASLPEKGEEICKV
T1 sequence (Q9NS75 whole entry): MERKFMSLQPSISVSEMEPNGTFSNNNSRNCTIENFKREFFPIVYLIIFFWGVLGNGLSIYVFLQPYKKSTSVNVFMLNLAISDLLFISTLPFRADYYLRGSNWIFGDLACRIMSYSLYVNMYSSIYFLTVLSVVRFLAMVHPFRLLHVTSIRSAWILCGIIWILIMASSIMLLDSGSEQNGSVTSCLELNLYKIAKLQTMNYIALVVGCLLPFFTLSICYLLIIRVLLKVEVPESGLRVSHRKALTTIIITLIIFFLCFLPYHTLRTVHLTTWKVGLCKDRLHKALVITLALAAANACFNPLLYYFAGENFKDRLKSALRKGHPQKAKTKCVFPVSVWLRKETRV

[2] = target: Cysteinyl leukotriene receptor (Homo sapiens) (UniProt Q9Y271+Q9NS75); assay: In vivo inhibition of LTD4-induced bronchoconstriction in anesthetized guinea pig.; format: functional, organism-based; conditions: Cavia porcellus; target entry is the homologue from another species
Cavia porcellus [3] = assay: Inhibition of LTD4 (5 ng/site) induced vascular permeability in guinea pig skin at dose 10 mg/kg given perorally; format: functional; conditions: route oral
Cavia porcellus [4] = assay: Inhibition of LTD4 (5 ng/site) induced vascular permeability in guinea pig skin at dose 0.3 mg/kg given perorally; format: functional; conditions: route oral

Row | Structure (SMILES) | IC50 [1] [nM] | further results
1 | CCCCCc1ccccc1/C=C/C(=O)Nc1cccc2c1OC(c1nnn[nH]1)CO2 (stereo unspecified) | 2150 | 
2 | CCCCCc1ccc(/C=C/C(=O)Nc2ccccc2C(=O)O)cc1 | 14000 | ID50 [2]: 4.5 mg/kg
3 | CCCCCc1ccc(/C=C/C(=O)Nc2cccc3c2OC(C(=O)O)CO3)cc1 (stereo unspecified) | 830 | ID50 [2]: 0.22 mg/kg
4 | CCCCCOc1ccccc1C(=O)Nc1cccc2c1OC(c1nnn[nH]1)CO2 (stereo unspecified) | 9400 | 
5 | CC/C=C/COc1ccc(C(=O)Nc2cccc3c2OC(c2nnn[nH]2)CO3)cc1 (stereo unspecified) | 150 | 
6 | CCCCCC/C=C/COc1ccc(C(=O)Nc2cccc3c2OC(c2nnn[nH]2)CO3)cc1 (stereo unspecified) | 5.2 | ID50 [2]: 0.0041 mg/kg
7 | O=C(Nc1cccc2c1OC(c1nnn[nH]1)CO2)c1ccc(OCCCc2ccccc2)cc1 (stereo unspecified) | 20 | 
8 | CCCCCOc1ccccc1/C=C/C(=O)Nc1cccc2c1OC(c1nnn[nH]1)CO2 (stereo unspecified) | 2300 | 
9 | CCCCCOc1ccc(C(=O)Nc2cccc3c2OC(c2nnn[nH]2)CO3)cc1 (stereo unspecified) | 100 | 
10 | CCCCCc1ccc(/C=C/C(=O)Nc2cccc3c2OC(c2nnn[nH]2)C3)cc1 (stereo unspecified) | 6900 | 
11 | C=CCCCCCCOc1ccc(C(=O)Nc2cccc3c2OC(c2nnn[nH]2)CO3)cc1 (stereo unspecified) | 1.3 | inhibition in vivo at 10 mg/kg (Cavia porcellus [3]): < 75.2%; ID50 [2]: 0.0017 mg/kg
12 | O=C(Nc1cccc2c1OC(c1nnn[nH]1)CO2)c1ccc(OCCCCCc2ccccc2)cc1 (stereo unspecified) | 11 | 
13 | CCCCCc1ccc(/C=C/C(=O)Nc2ccccc2OCc2nn[nH]n2)cc1 | 3000 | ID50 [2]: 0.5 mg/kg
14 | CCC/C=C/COc1ccc(C(=O)Nc2cccc3c2OC(c2nnn[nH]2)CO3)cc1 (stereo unspecified) | 4.3 | ID50 [2]: 0.0135 mg/kg
15 | CCCCCCCCCOc1ccc(C(=O)Nc2cccc3c2OC(c2nnn[nH]2)CO3)cc1 (stereo unspecified) | 20 | 
16 | CCCCCCCCCc1ccc(C(=O)Nc2cccc3c2OC(c2nnn[nH]2)CO3)cc1 (stereo unspecified) | 160 | 
17 | CCCCc1ccc(/C=C/C(=O)Nc2cccc3c2OC(c2nnn[nH]2)CO3)cc1 (stereo unspecified) | 220 | 
18 | CCCCCCCCc1ccc(C(=O)Nc2cccc3c2OC(c2nnn[nH]2)CO3)cc1 (stereo unspecified) | 100 | 
19 | CCCCCCCCOc1ccc(C(=O)Nc2cccc3c2OC(c2nnn[nH]2)CO3)cc1 (stereo unspecified) | 14 | 
20 | CCCCCc1ccc(C(=O)Nc2cccc3c2OC(c2nnn[nH]2)CO3)cc1 (stereo unspecified) | 2600 | 
21 | CCCOc1ccc(/C=C/C(=O)Nc2cccc3c2OC(c2nnn[nH]2)CO3)cc1 (stereo unspecified) | 660 | 
22 | CCCCOc1ccc(C(=O)Nc2cccc3c2OC(c2nnn[nH]2)CO3)cc1 (stereo unspecified) | 220 | 
23 | CCCCCOc1cccc(C(=O)Nc2cccc3c2OC(c2nnn[nH]2)CO3)c1 (stereo unspecified) | 5000 | 
24 | CCCCCc1ccc(/C=C/C(=O)Nc2cccc3c2OC(c2nnn[nH]2)CO3)cc1 (stereo unspecified) | 370 | ID50 [2]: 0.33 mg/kg

Row | Structure (SMILES) | IC50 [1] [nM] | further results
25 | C=CCCC/C=C/COc1ccc(C(=O)Nc2cccc3c2OC(c2nnn[nH]2)CO3)cc1 (stereo unspecified) | 1.1 | inhibition in vivo at 10 mg/kg (Cavia porcellus [3]): 2.9%
26 | CCCCc1ccc(C(=O)Nc2cccc3c2OC(c2nnn[nH]2)CO3)cc1 (stereo unspecified) | 1500 | 
27 | O=C(Nc1cccc2c1OC(c1nnn[nH]1)CO2)c1ccc(OCCc2ccccc2)cc1 (stereo unspecified) | 62 | 
28 | CCCCCOc1cccc(/C=C/C(=O)Nc2cccc3c2OC(c2nnn[nH]2)CO3)c1 (stereo unspecified) | 150 | 
29 | CCCCCCCCCc1ccc(/C=C/C(=O)Nc2cccc3c2OC(c2nnn[nH]2)CO3)cc1 (stereo unspecified) | 3200 | 
30 | CCCCCc1ccc(/C=C/C(=O)Nc2ccccc2OCC(=O)O)cc1 | 9000 | ID50 [2]: 4.2 mg/kg
31 | CCCCCCCCCCc1ccc(/C=C/C(=O)Nc2cccc3c2OC(c2nnn[nH]2)CO3)cc1 (stereo unspecified) | 1100 | 
32 | CCCOc1ccc(C(=O)Nc2cccc3c2OC(c2nnn[nH]2)CO3)cc1 (stereo unspecified) | 2200 | 
33 | CCCCCCCc1ccc(/C=C/C(=O)Nc2cccc3c2OC(c2nnn[nH]2)CO3)cc1 (stereo unspecified) | 350 | 
34 | CCCCCCc1ccc(C(=O)Nc2cccc3c2OC(c2nnn[nH]2)CO3)cc1 (stereo unspecified) | 210 | 
35 | CCCCCCCOc1ccc(C(=O)Nc2cccc3c2OC(c2nnn[nH]2)CO3)cc1 (stereo unspecified) | 9 | inhibition in vivo at 10 mg/kg (Cavia porcellus [3]): < 46.7%
36 | CCCCCCc1ccc(/C=C/C(=O)Nc2cccc3c2OC(c2nnn[nH]2)CO3)cc1 (stereo unspecified) | 140 | 
37 | CCCc1ccc(/C=C/C(=O)Nc2cccc3c2OC(c2nnn[nH]2)CO3)cc1 (stereo unspecified) | 490 | 
38 | CCCCCCCc1ccc(C(=O)Nc2cccc3c2OC(c2nnn[nH]2)CO3)cc1 (stereo unspecified) | 70 | 
39 | CCCCOc1ccc(/C=C/C(=O)Nc2cccc3c2OC(c2nnn[nH]2)CO3)cc1 (stereo unspecified) | 120 | 
40 | CCCCCCOc1ccc(C(=O)Nc2cccc3c2OC(c2nnn[nH]2)CO3)cc1 (stereo unspecified) | 13 | 
41 | CCCCCc1ccc(/C=C/C(=O)Nc2ccccc2CC(=O)O)cc1 | 20000 | 
42 | CCCC/C=C/COc1ccc(C(=O)Nc2cccc3c2OC(c2nnn[nH]2)CO3)cc1 (stereo unspecified) | 0.47 | ID50 [2]: 0.0055 mg/kg
43 | CCCCCC#CCOc1ccc(C(=O)Nc2cccc3c2OC(c2nnn[nH]2)CO3)cc1 (stereo unspecified) | 0.67 | ID50 [2]: 0.0064 mg/kg
44 | CCCCCCCCc1ccc(/C=C/C(=O)Nc2cccc3c2OC(c2nnn[nH]2)CO3)cc1 (stereo unspecified) | 580 | 
45 | CCCCCCCCCCOc1ccc(C(=O)Nc2cccc3c2OC(c2nnn[nH]2)CO3)cc1 (stereo unspecified) | 300 | 
46 | CCCCCCCCCCc1ccc(C(=O)Nc2cccc3c2OC(c2nnn[nH]2)CO3)cc1 (stereo unspecified) | 500 | 
47 | CCCCCc1ccccc1C(=O)Nc1cccc2c1OC(c1nnn[nH]1)CO2 (stereo unspecified) | 40000 | 

Continued, in another order:

Row | IC50 [1] [nM] | Structure (SMILES) | further results
48 | 4.2 | CCCCCCCc1ccc(C(=O)Nc2cccc3c(=O)cc(-c4nn[nH]n4)oc23)cc1 | 
49 | 53 | CCCCCOc1ccc(C(=O)Nc2cccc3c(=O)cc(-c4nn[nH]n4)oc23)cc1 | 
50 | 0.5 | CCCCCCCOc1ccc(C(=O)Nc2cccc3c(=O)cc(-c4nn[nH]n4)oc23)cc1 | 
51 | 3100 | CCCCCc1ccc(/C=C/C(=O)Nc2cccc3cc(-c4nn[nH]n4)oc23)cc1 | 
52 | 34 | CCCCc1ccc(/C=C/C(=O)Nc2cccc3c(=O)cc(-c4nn[nH]n4)oc23)cc1 | 
53 | 0.86 | CCCCCCOc1ccc(C(=O)Nc2cccc3c(=O)cc(-c4nn[nH]n4)oc23)cc1 | 
54 | 21 | CCCCCCOc1ccc(/C=C/C(=O)Nc2cccc3c2OC(c2nnn[nH]2)CO3)cc1 (stereo unspecified) | 
55 | 5.5 | CCCCCCCCc1ccc(C(=O)Nc2cccc3c(=O)cc(-c4nn[nH]n4)oc23)cc1 | 
56 | 0.031 | CCCC/C=C/COc1ccc(C(=O)Nc2cccc3c(=O)cc(-c4nn[nH]n4)oc23)cc1 | ID50 [2]: 0.0011 mg/kg
57 | 7.4 | CCCCCCCCCOc1ccc(C(=O)Nc2cccc3c(=O)cc(-c4nn[nH]n4)oc23)cc1 | 
58 | 300 | CCCCCc1ccc(/C=C/C(=O)Nc2cccc3ccc(-c4nn[nH]n4)cc23)cc1 | 
59 | 180 | CCCCCc1ccc(C(=O)Nc2cccc3c(=O)cc(-c4nn[nH]n4)oc23)cc1 | 
60 | 5 | CCCCOc1ccc(C(=O)Nc2cccc3c(=O)cc(-c4nn[nH]n4)oc23)cc1 | 
61 | 100 | CCCCCCCc1ccc(/C=C/C(=O)Nc2cccc3c(=O)cc(-c4nn[nH]n4)oc23)cc1 | 
62 | 30 | CCCCCc1ccc(/C=C/C(=O)Nc2cccc3c(=O)cc(-c4nn[nH]n4)oc23)cc1 | ID50 [2]: 0.014 mg/kg
63 | 32 | CCCCCCc1ccc(/C=C/C(=O)Nc2cccc3c(=O)cc(-c4nn[nH]n4)oc23)cc1 | 
64 | 1.5 | CCC/C=C/COc1ccc(C(=O)Nc2cccc3c(=O)cc(-c4nn[nH]n4)oc23)cc1 | 
65 | 1000 | CCCCCc1ccc(/C=C/C(=O)Nc2cccc3ccc(-c4nn[nH]n4)nc23)cc1 | 
66 | 5.5 | CCCCCCCCOc1ccc(C(=O)Nc2cccc3c(=O)cc(-c4nn[nH]n4)oc23)cc1 | 
67 | 120 | CCCCCOc1ccc(/C=C/C(=O)Nc2cccc3c2OC(c2nnn[nH]2)CO3)cc1 (stereo unspecified) | 
68 | 140 | CCCCCCCOc1ccc(/C=C/C(=O)Nc2cccc3c(=O)cc(-c4nn[nH]n4)oc23)cc1 | 
69 | 0.14 | CCCCCC#CCOc1ccc(C(=O)Nc2cccc3c(=O)cc(-c4nn[nH]n4)oc23)cc1 | ID50 [2]: 0.0011 mg/kg
70 | 215 | CCCCCCCCOc1ccc(/C=C/C(=O)Nc2cccc3c2OC(c2nnn[nH]2)CO3)cc1 (stereo unspecified) | 
71 | 88 | CCCCCCCOc1ccc(/C=C/C(=O)Nc2cccc3c2OC(c2nnn[nH]2)CO3)cc1 (stereo unspecified) | 
72 | 0.96 | O=C(Nc1cccc2c(=O)cc(-c3nn[nH]n3)oc12)c1ccc(OCCCc2ccccc2)cc1 | 
73 | 0.16 | C=CCCC/C=C/COc1ccc(C(=O)Nc2cccc3c(=O)cc(-c4nn[nH]n4)oc23)cc1 | inhibition in vivo at 0.3 mg/kg (Cavia porcellus [4]): < 44.6%; ID50 [2]: 0.0012 mg/kg
74 | 18 | CCCCCCOc1ccc(/C=C/C(=O)Nc2cccc3c(=O)cc(-c4nn[nH]n4)oc23)cc1 | 
75 | 240 | CCCCCc1ccc(/C=C/C(=O)Nc2cccc3c(=O)cc(C(=O)O)oc23)cc1 | ID50 [2]: 0.32 mg/kg
76 | 15 | CCCCCCc1ccc(C(=O)Nc2cccc3c(=O)cc(-c4nn[nH]n4)oc23)cc1 | 
77 | 7 | CCCCCCCCCc1ccc(C(=O)Nc2cccc3c(=O)cc(-c4nn[nH]n4)oc23)cc1 | 
